Test results reported in paper PMC6511942, “Exploitation of Antibiotic Resistance as a Novel Drug Target: Development of a β-Lactamase-Activated Antibacterial Prodrug” (Journal of Medicinal Chemistry, 2019).
In brackets after ≈: the same amount, converted by molar mass. Several values for one entry are separate records, joined by “and”; a condition that tells them apart may be missing. Identical values can stand only once. Like-named read-outs stand apart in the source and are kept apart here.

Tests used:
[1] = test system: CFT073 + pSU18 (pEMP); experiment: microbe, parasite or virus in culture; format: cell-based, E. coli
[2] = test system: CFT073 + pSU18 + CTX-M-1 (pCTX); experiment: microbe, parasite or virus in culture; format: cell-based, E. coli
[3] = target: T1, recombinant DNA gyrase (Escherichia coli, UniProt P0AES4+P0AES6); experiment: Recombinant DNA gyrase supercoiling assay ± CTX-M-15; format: biochemical, E. coli
T1 construct: purchased Inspiralis

[4] = test system: CFT073 E. coli cells WT; experiment: MIC, E. coli CFT073 WT; format: cell-based; settings: Escherichia coli
[5] = test system: CFT073 pNDM (NDM-1); experiment: microbe, parasite or virus in culture; format: cell-based, E. coli; settings: Escherichia coli, read-out: MIC value pNDM
[6] = test system: CFT073 pKPC (KPC-3); experiment: microbe, parasite or virus in culture; format: cell-based, E. coli; settings: Escherichia coli, read-out: MIC value pKPC
[7] = test system: Ec11 (CTX-M-15, ciprofloxacin sensitive); experiment: microbe, parasite or virus in culture; format: cell-based, E. coli
[8] = test system: Ec12 (CTX-M-15, ciprofloxacin resistant); experiment: microbe, parasite or virus in culture; format: cell-based, E. coli
[9] = test system: Ec13 (CTX-M-15, ciprofloxacin resistant); experiment: microbe, parasite or virus in culture; format: cell-based, E. coli
[10] = test system: Ec16 (CTX-M-15, ciprofloxacin sensitive); format: cell-based, E. coli; settings: strain EC16, ciprofloxacin sensitive
[11] = test system: Ec17 (CTX-M-15, ciprofloxacin sensitive); experiment: microbe, parasite or virus in culture; format: cell-based, E. coli
[12] = test system: Ec19 (CTX-M-15, ciprofloxacin resistant); experiment: microbe, parasite or virus in culture; format: cell-based, E. coli
[13] = test system: E. faecalis ATCC29212 and GW01; experiment: Antibacterial activity against E. faecalis strains without β-lactamase; format: cell-based; settings: two strains that did not express β-lactamase
[14] = test system: E. coli CFT073 pEMP; experiment: Bactericidal activity (survival by CFU counts), CFT073 pEMP; format: cell-based; settings: 78 nM, CFU counts over time
Protocol: Finally, the ability of prodrug 35 to kill bacteria rather than arrest growth was evaluated. […]
(§1) determined as the lowest concentration of antibiotic that inhibited visible bacterial growth.
OD595 measurements were recorded on a BioRad 1Mark Microplate Reader. Measurements were background corrected against the no-inoculum control and normalized to the no-drug […]
Determination of bactericidal activity
Stationary-phase bacteria were inoculated into 3 ml MHB containing no antibiotic, […]
(§2) subsequently incubated at 37 °C with shaking (180 r.p.m.) and bacterial viability determined […]
been shown previously to be bactericidal.
Recombinant β-lactamase assay
(§3) Each compound was incubated for 1 hour at room temperature in 100 mM NaPO4 (pH 7) ± 0.5 M NaOH. The wavelength at which the difference between un-hydrolysed and hydrolysed compound was the greatest was selected (typically 263 nm) and a compound concentration vs. absorbance standard curve was generated. Compounds, typically 250 μM in assay buffer (100 mM NaPO4 (pH 7)), were dispensed into a Corning 96-well UV transparent flat bottom plate. Recombinant Amp-C in assay buffer was added immediately before incubatio n in the microplate reader at 37 °C. UV absorbance was measured every 20 s for 1 h on a BMG LABTECH SPECTROstarNano. Kinetic parameters were determined by half -life analysis.
NMR β-lactamase hydrolysis assay […]

[15] = test system: E. coli CFT073 pCTX-M-1; experiment: Bactericidal activity (survival by CFU counts), CFT073 pCTX-M-1; format: cell-based; settings: 78 nM
[16] = test system: E. coli strain DH5α; experiment: MIC, broth microdilution, E. coli DH5α; format: cell-based; settings: for MIC value DH5α: E. coli DH5α without β-lactamase
Protocol: Analysis of the literature identified the amide functionality at C-7 of the cephem ring as central to PBP and β-lactamase activity,[44]−[51] and therefore structural changes at this position provided the initial focus of investigation. By use of cephalothin 7 (Table 1) as the starting point, analogues were prepared to explore bioisosteric replacement,[52],[53] functionalities present in early generation β-lactam antibiotics, and to probe steric and electronic tolerance.[54],[55] All compounds were synthesized according to the previously reported methods (Figure S1 in Supporting Information).[55],[56] Antibacterial activity was assessed by determining the minimal concentration required to inhibit bacterial growth, known as the minimal inhibitory concentration (MIC), against the E. coli strain DH5α ± expression of the ESBL TEM-116.[57] The susceptibility to β-lactamase mediated hydrolysis was assessed by determining the physiological efficiency (kcat/Km) of hydrolysis by recombinant AmpC protein.[3],[58],[59] […]
pNDM pSU18 containing the native coding sequence for NDM-1 under the Jiménez-control of the native promoter Castellanos et […]
pKPC pSU18 containing the native coding sequence for KPC-3 under the Brem et al., control of the native promoter 20166
Transformation of E. coli with plasmids
Plasmids were introduced via heat shock into chemically competent DH5a and via electroporation into E. coli CFT073 following published protocols.8 […]
The bacterial strains and plasmids used in this study are detailed in Supplementary Table 1.
E. coli was grown in Mueller-Hinton Broth (MHB) or Lennox Broth (LB) at 37 °C, with shaking (180 r.p.m.) overnight (16-18 h). […]
MIC assays were performed in 96-well thermo scientific Nuclon Delta Surface plates and MICs were determined in accordance with the broth microdilution protocol.7 E. coli grown to stationary-phase in MHB or LB were adjusted to OD600 nm of 0.05 in MHB and […]
as §1
OD595 measurements were recorded on a BioRad 1Mark Microplate Reader. […]
as §2
as §3, with “Compounds, typically 250 μM in assay buffer (100 mM NaPO4 (pH 7)), were dispensed into a Corning 96-well UV transparent flat bottom plate.” left out, “analysis. […]” for “analysis.”

[17] = test system: DH5α cells –βla; experiment: Whole-cell NMR β-lactamase hydrolysis assay, DH5α without β-lactamase; format: cell-based, E. coli; settings: DH5α – CTX-M-1, 100 μM, 60 min
[18] = test system: DH5α + TEM-116; experiment: Whole-cell NMR β-lactamase hydrolysis assay, DH5α + TEM-116; format: cell-based, E. coli; settings: DH5α + TEM-116, 100 μM, 90 min
[19] = target: T2, recombinant AmpC protein (Escherichia coli, UniProt P00811); format: biochemical
T2 construct: purchased Abcam ab104926

[20] = test system: CFT073 + pSU18 + CTX-M-1; experiment: Whole-cell NMR β-lactamase hydrolysis assay, CFT073 + CTX-M-1; format: cell-based, E. coli; settings: 100 μM compound at 1 h by whole-cell NMR assay
[21] = test system: DH5α expressing CTX-M-1; experiment: Whole-cell NMR β-lactamase hydrolysis assay, DH5α + CTX-M-1; format: cell-based, E. coli; settings: DH5α + CTX-M-1, 100 μM, 60 min

T1 sequence (P0AES4 whole entry, one chain of several): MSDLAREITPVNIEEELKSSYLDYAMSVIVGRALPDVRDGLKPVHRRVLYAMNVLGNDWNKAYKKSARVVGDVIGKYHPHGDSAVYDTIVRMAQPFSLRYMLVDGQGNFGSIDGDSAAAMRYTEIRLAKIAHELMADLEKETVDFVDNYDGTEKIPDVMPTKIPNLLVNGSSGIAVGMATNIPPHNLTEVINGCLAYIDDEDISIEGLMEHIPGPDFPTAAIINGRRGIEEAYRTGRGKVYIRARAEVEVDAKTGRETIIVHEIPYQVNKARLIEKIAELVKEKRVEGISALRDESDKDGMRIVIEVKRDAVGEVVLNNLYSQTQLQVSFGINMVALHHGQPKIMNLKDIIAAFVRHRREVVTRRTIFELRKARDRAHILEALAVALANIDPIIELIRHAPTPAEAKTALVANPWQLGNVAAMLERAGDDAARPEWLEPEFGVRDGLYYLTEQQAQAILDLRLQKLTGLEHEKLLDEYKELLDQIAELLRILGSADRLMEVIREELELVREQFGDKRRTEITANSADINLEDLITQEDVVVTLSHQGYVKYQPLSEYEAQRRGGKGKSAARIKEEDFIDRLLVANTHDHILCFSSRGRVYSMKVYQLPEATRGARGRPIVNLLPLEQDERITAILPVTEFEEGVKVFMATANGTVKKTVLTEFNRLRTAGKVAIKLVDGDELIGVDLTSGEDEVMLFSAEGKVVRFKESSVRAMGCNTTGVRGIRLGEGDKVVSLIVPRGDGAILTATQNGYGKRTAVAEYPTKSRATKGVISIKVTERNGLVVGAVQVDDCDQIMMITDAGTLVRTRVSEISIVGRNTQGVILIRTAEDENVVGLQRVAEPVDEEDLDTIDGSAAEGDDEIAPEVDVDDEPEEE
T2 sequence (P00811 20-377): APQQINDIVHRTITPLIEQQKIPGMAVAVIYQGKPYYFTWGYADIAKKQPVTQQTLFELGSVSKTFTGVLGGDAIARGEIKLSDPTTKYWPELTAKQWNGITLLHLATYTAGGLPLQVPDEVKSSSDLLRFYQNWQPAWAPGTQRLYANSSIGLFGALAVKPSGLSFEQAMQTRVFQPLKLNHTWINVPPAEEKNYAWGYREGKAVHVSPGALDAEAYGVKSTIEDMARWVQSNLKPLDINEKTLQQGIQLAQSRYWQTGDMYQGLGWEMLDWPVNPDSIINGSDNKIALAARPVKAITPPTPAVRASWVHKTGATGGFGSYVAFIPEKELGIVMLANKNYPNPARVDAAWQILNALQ

CC(=O)N[C@@H]1C(=O)N2C(C(=O)O)=C(COC(=O)c3cn(C4CC4)c4cc(N5CCNCC5)c(F)cc4c3=O)CS[C@H]12 [compound 35, (6R,7R)-7-Acetamido-3-(((1-cyclopropyl-6-fluoro-4-oxo-7-(piperazin-1-yl)-1,4-dihydroquinoline-3-carbonyl)oxy)methyl)-8-oxo-5-thia-1-azabicyclo[4.2.0]oct-2-ene-2-carboxylic Acid]
decrease in activity (MIC) compared to ciprofloxacin 31 ([1]; CFT073 WT and pEMP, absence of β-lactamase): 10 fold
MIC assay in the presence of human serum ([1]; CFT073 pEMP, 10 % normal human serum): equivalent to those obtained in the absence of serum
MIC ([1]; Escherichia coli, read-out: MIC value pEMP, CFT073 empty plasmid): 0.312 µM (≈ 0.183 µg/mL)
MIC assay in the presence of human serum ([2]; CFT073 pCTX-M-1, 10 % normal human serum): equivalent to those obtained in the absence of serum
MIC higher than ciprofloxacin 31 ([2]; CFT073 strains expressing CTX-M-1, NDM1 or KPC): 2 fold
MIC ([2]; Escherichia coli, read-out: MIC value pCTX, CFT073 pCTX): 0.04 µg/mL and 0.063 µM
inhibition of DNA gyrase ([3]; absence of CTX-M-15): not observed
reduction of DNA gyrase activity ([3]; presence of CTX-M-15, 1 μM compound): > 50%
MIC ([4]; read-out: MIC value WT, CFT073 WT): 0.312 µM (≈ 0.183 µg/mL)
MIC ([4]; CFT073 WT, read-out: MIC value WT): 0.18 µg/mL and 0.31 µM
MIC [5]: 0.04 µg/mL and 0.063 µM
MIC [6]: 0.04 µg/mL and 0.063 µM
MIC ([7]; Escherichia coli, read-out: MIC value Ec11): 0.63 µM (≈ 0.369 µg/mL)
antibacterial activity (in words) ([7]; strain EC11, ciprofloxacin sensitive): confirmed
MIC ([8]; Escherichia coli, read-out: MIC value Ec12): > 5 µM
arrest in bacterial growth (in words) ([8]; strain EC12, ciprofloxacin resistant): no arrest in bacterial growth
MIC ([9]; Escherichia coli, read-out: MIC value Ec13): > 5 µM
arrest in bacterial growth (in words) ([9]; strain EC13, ciprofloxacin resistant): no arrest in bacterial growth
antibacterial activity (in words) [10]: confirmed
MIC ([11]; Escherichia coli, read-out: MIC value Ec17): 2.5 µM (≈ 1.46 µg/mL)
antibacterial activity (in words) ([11]; strain EC17, ciprofloxacin sensitive): confirmed
MIC ([12]; Escherichia coli, read-out: MIC value Ec19): > 5 µM
arrest in bacterial growth (in words) ([12]; strain EC19, ciprofloxacin resistant): no arrest in bacterial growth
activity against E. faecalis compared to ciprofloxacin [13]: reduced activity compared to ciprofloxacin
growth of CFT073 expressing empty plasmid [14]: growth comparable to no treatment controls
killing activity in E. coli expressing CTX-M-1 ([15]; CFU counts over time): almost identical to free ciprofloxacin
greater killing of E. coli expressing CTX-M-1 compared with bacteria not expressing the enzyme ([15]; 6 h incubation, CFU counts): > 100 fold

CC(=O)OCC1=C(C(=O)O)N2C(=O)[C@@H](NC(=O)Cc3ccc(Oc4ccccc4)cc3)[C@H]2SC1 [compound 17, (6R,7R)-3-(Acetoxymethyl)-8-oxo-7-(2-(4-phenoxyphenyl)acetamido)-5-thia-1-azabicyclo[4.2.0]oct-2-ene-2-carboxylic Acid]
MIC value DH5α [16]: no measurable MIC values
% hydrolysis by NMR –βla [17]: 0%
% hydrolysis by NMR +βla [18]: 54%

CC(=O)OCC1=C(C(=O)O)N2C(=O)[C@@H](NC(=O)Cc3ccccc3)[C@H]2SC1 [compound 11, (6R,7R)-3-(Acetoxymethyl)-8-oxo-7-(2-phenylacetamido)-5-thia-1-azabicyclo[4.2.0]oct-2-ene-2-carboxylic Acid]
increase in MIC value against E. coli DH5α compared to cephalothin [16]: 4 fold

CC(=O)OCC1=C(C(=O)O)N2C(=O)[C@@H](NC(=O)Cc3cccc(C)c3)[C@H]2SC1 [compound 18, (6R,7R)-3-(acetoxymethyl)-8-oxo-7-(2-(m-tolyl)acetamido)-5-thia-1-azabicyclo[4.2.0]oct-2-ene-2-carboxylic Acid]
increase in kcat/Km compared to cephalothin [19]: 3 fold
increase in kcat/Km compared to para-methyl 12 [19]: 5 fold

CC(=O)OCC1=C(C(=O)O)N2C(=O)[C@@H](NC(=O)[C@H](C)c3ccccc3)[C@H]2SC1 [compound 10, (6R,7R)-3-(Acetoxymethyl)-8-oxo-7-((R)-2-phenylpropanamido)-5-thia-1-azabicyclo[4.2.0]oct-2-ene-2-carboxylic Acid]
% hydrolysis in CFT073 + pSU18 + CTX-M-1 [20]: 0%

CC(=O)OCC1=C(C(=O)O)N2C(=O)[C@@H](NC(=O)Cc3ccc(-c4ccccc4)cc3)[C@H]2SC1 [compound 16, (6R,7R)-7-(2-([1,1′-Biphenyl]-4-yl)acetamido)-3-(acetoxymethyl)-8-oxo-5-thia-1-azabicyclo[4.2.0]oct-2-ene-2-carboxylic Acid]
MIC value DH5α [16]: no measurable MIC values
% hydrolysis by NMR –βla [17]: 0%
% hydrolysis by NMR +βla [21]: 100%

CC(=O)OCC1=C(C(=O)O)N2C(=O)[C@@H](NC(=O)C3CCCCC3)[C@H]2SC1 [compound 25, (6R,7R)-3-(Acetoxymethyl)-7-(cyclohexanecarboxamido)-8-oxo-5-thia-1-azabicyclo[4.2.0]oct-2-ene-2-carboxylic Acid]
% hydrolysis in CFT073 + pSU18 + CTX-M-1 [20]: 0%

CC(=O)OCC1=C(C(=O)O)N2C(=O)[C@@H](NC(=O)Cc3cccc(Oc4ccccc4)c3)[C@H]2SC1 [compound 19, (6R,7R)-3-(Acetoxymethyl)-8-oxo-7-(2-(3-phenoxyphenyl)acetamido)-5-thia-1-azabicyclo[4.2.0]oct-2-ene-2-carboxylic Acid]
MIC value DH5α [16]: no measurable MIC values
% hydrolysis in CFT073 + pSU18 + CTX-M-1 [20]: 0%

CC(=O)OCC1=C(C(=O)O)N2C(=O)[C@@H](NC(=O)Cc3cccs3)[C@H]2SC1 [Ceph 7, cephalothin, reference compound]
% hydrolysis by NMR –βla [17]: 0%
% hydrolysis by NMR +βla ([21]; listed as cepaholothin 7): complete hydrolysis

O=C(O)c1cn(C2CC2)c2cc(N3CCNCC3)c(F)cc2c1=O [Ciprofloxacin 31, ciprofloxacin, reference compound]
effect of CTX-M-15 on DNA gyrase inhibitory activity ([3]; ± CTX-M-15): not affected by CTX-M-15
